Reference: patent US6878713B2, “Generation triple-targeting, chiral, broad-spectrum antimicrobial 7-substituted piperidino-quinolone carboxylic acid derivatives, their preparation, compositions and use as medicaments” (Wockhardt Limited, priority 2001, dated 2005)
Values after ≈ are worked out from the molar mass of the structure shown.

Tested on: Fluoroquinolone Sensitive Strains
Assay: In-vitro antimicrobial test (MIC, two-fold serial agar dilution, NCCLS), Table 17
Type: cell-based
Method: The test method was in accordance with the standard NCCLS protocol (Methods for Dilution Antimicrobial Susceptibility Tests for Bacteria that grow Aerobicially, Approved Standards, M7-A5, Fifth Edition, January 2000).
The antibacterial activities (minimum inhibitory concentration: MIC, […]) were determined by using the two-fold serial agar dilution method recommended by NCCLS. The media used for preculture and main culture were Tryptic Soya broth (Difco) and Mueller Hinton medium (Difco), respectively. The Mueller Hinton agar was supplemented with 5% sheep blood for streptococci. Overnight cultures were diluted with buffered saline (pH 7.2) to the final cell density of 5×10^6-10^7 CFU/ml, and each bacterial suspension was applied with a replicator (Denley's multipoint inoculator, UK) onto a series of Mueller-Hinton agar plates containing antibacterial agents at various concentrations. Final inoculum was approximately 10^4 CFU/spot. The plates were incubated for 18 hrs at 37° C. The MIC was defined as the lowest concentration of an antibacterial agent that inhibits the development of visible microbial growth on agar.

[1] = Escherichia coli, ATCC25922, E. coli ATCC 25922
[2] = Staphylococcus aureus, ATCC 25923 / MSSA, MSSA ATCC 25923
[3] = Streptococcus pneumoniae, ATCC49619, S. pneumoniae ATCC 49619

| MICs (E. coli ATCC 25922) | MICs (MSSA ATCC 25923) | MIC [1] | MIC [2] | MIC [3] | Compound |
| --- | --- | --- | --- | --- | --- |
| – | – | 1.56 mg/L (≈ 3.88 µM) | 0.8 mg/L (≈ 1.99 µM) | – | Cc1c(N2CCC(N)C(C)(C)C2)c(F)c(N)c2c(=O)c(C(=O)O)cn(C3CC3)c12 (racemic) [Compound 131, (±)-5-Amino-1-cyclopropyl-6-fluoro-1,4-dihydro-8-methyl-7-(4-amino-3,3-dimethyl-1-piperidinyl)-4-oxo-quinoline-3-carboxylic acid] |
| – | – | 0.4 mg/L (≈ 0.994 µM) | 0.025 mg/L (≈ 0.0621 µM) | 0.2 mg/L (≈ 0.497 µM) | Cc1c(N2CCC(N)C(C)(C)C2)c(F)c(N)c2c(=O)c(C(=O)O)cn(C3CC3)c12 (single isomer, unassigned; (-)) [Compound 133, (−)-5-Amino-1-cyclopropyl-6-fluoro-1,4-dihydro-8-methyl-7-(4-amino-3,3-dimethyl-1-piperidinyl)-4-oxo-quinoline-3-carboxylic acid] |
| – | – | 0.4 mg/L (≈ 0.815 µM) | 0.05 mg/L (≈ 0.102 µM) | 0.2 mg/L (≈ 0.408 µM) | CCOC(=O)NC1CCN(c2c(F)c(N)c3c(=O)c(C(=O)O)cn(C4CC4)c3c2OC)CC1(C)C (stereo not drawn) [Compound 70, 5-Amino-1-cyclopropyl-6-fluoro-1,4-dihydro-8-methoxy-7-(4-ethoxycarbonylamino-3,3-dimethyl-1-piperidinyl)-4-oxo-quinoline-3-carboxylic acid] |
| – | – | 0.2 mg/L (≈ 0.436 µM) | 0.05 mg/L (≈ 0.109 µM) | 0.2 mg/L (≈ 0.436 µM) | COc1c(N2CCC(NC3CC3)C(C)(C)C2)c(F)c(N)c2c(=O)c(C(=O)O)cn(C3CC3)c12 (stereo not drawn) [Compound 75, 5-Amino-1-cyclopropyl-6-fluoro-1,4-dihydro-8-methoxy-7-(4-cyclopropylamino-3,3-dimethyl-1-piperidinyl)-4-oxo-quinoline-3-carboxylic acid] |

Further lines, the molecule ahead of its results:

| Compound | MICs (E. coli ATCC 25922) | MICs (MSSA ATCC 25923) | MIC [1] | MIC [2] | MIC [3] |
| --- | --- | --- | --- | --- | --- |
| Cc1c(N2CCC(O)C(C)C2)c(F)cc2c(=O)c(C(=O)O)cn(C3CC3)c12 (mixture of isomers) [Compound 92, cis/trans-1-Cyclopropyl-6-fluoro-8-methyl-7-(4-hydroxy-3-methyl-1-piperidinyl)-1,4-dihydro-4-oxo-quinoline-3-carboxylic acid] | 0.05 µg/mL | 0.1 µg/mL | – | – | – |
| COc1c(N2CCC(N)C(C)(C)C2)c(F)cc2c(=O)c(C(=O)O)cn(C3CC3)c12 (racemic) [Compound 17, (±)-1-Cyclopropyl-6-fluoro-1,4-dihydro-8-methoxy-7-(4-amino-3,3-dimethyl-1-piperidinyl)-4-oxo-quinoline-3-carboxylic acid] | – | – | 0.4 mg/L (≈ 0.991 µM) | 0.4 mg/L (≈ 0.991 µM) | – |
| CCc1c(N2CC[C@H](O)[C@H](C)C2)c(F)cc2c(=O)c(C(=O)O)cn(C3CC3)c12 (relative stereo) [Compound 120, cis-1-Cyclopropyl-6-fluoro-8-ethyl-7-(4-hydroxy-3-methyl-1-piperidinyl)-1,4-dihydro-4-oxo-quinoline-3-carboxylic acid] | – | – | 0.8 mg/L (≈ 2.06 µM) | 0.1 mg/L (≈ 0.257 µM) | 0.8 mg/L (≈ 2.06 µM) |
| CCn1cc(C(=O)O)c(=O)c2cc(F)c(N3CC(C)C(NC)C(C)C3)c(OC)c21 (stereo not drawn) [Compound 46, 1-Ethyl-6-fluoro-1,4-dihydro-8-methoxy-7-(4-methylamino-3,5-dimethyl-1-piperidinyl)-4-oxo-quinoline-3-carboxylic acid] | – | – | 0.1 mg/L (≈ 0.247 µM) | 0.05 mg/L (≈ 0.123 µM) | 0.1 mg/L (≈ 0.247 µM) |
| COc1c(N2CC(C)C(NC3CC3)C(C)C2)c(F)cc2c(=O)c(C(=O)O)cn(C3CC3)c12 (stereo not drawn) [Compound 48, 1-Cyclopropyl-6-fluoro-1,4-dihydro-8-methoxy-7-(4-cyclopropylamino-3,5-dimethyl-1-piperidinyl)-4-oxo-quinoline-3-carboxylic acid] | – | – | 6.25 mg/L (≈ 14.1 µM) | 1.56 mg/L (≈ 3.52 µM) | > 6.25 mg/L |
| COc1c(N2CC(C)C(O)C(C)C2)c(F)cc2c(=O)c(C(=O)O)cn(C3CC3)c12 (stereo not drawn) [Compound 145, 1-Cyclopropyl-6-fluoro-1,4-dihydro-8-methoxy-7-(4-hydroxy-3,5-dimethyl-1-piperidinyl)-4-oxo-quinoline-3-carboxylic acid] | – | – | 1.56 mg/L (≈ 3.86 µM) | 0.025 mg/L (≈ 0.0618 µM) | 0.4 mg/L (≈ 0.989 µM) |
